Results published in article PMC8229335, “Screening of Novel Laccase Producers—Isolation and Characterization of Cold-Adapted Laccase from Kabatiella bupleuri G3 Capable of Synthetic Dye Decolorization” (Biomolecules, 2021).

Biological target: T1, K. bupleuri laccase G3 (Aureobasidium bupleuri, UniProt A0A8F5DNG6)
T1 construct: about 70-75 kDa by SDS-PAGE
T1 sequence (A0A8F5DNG6 21-645): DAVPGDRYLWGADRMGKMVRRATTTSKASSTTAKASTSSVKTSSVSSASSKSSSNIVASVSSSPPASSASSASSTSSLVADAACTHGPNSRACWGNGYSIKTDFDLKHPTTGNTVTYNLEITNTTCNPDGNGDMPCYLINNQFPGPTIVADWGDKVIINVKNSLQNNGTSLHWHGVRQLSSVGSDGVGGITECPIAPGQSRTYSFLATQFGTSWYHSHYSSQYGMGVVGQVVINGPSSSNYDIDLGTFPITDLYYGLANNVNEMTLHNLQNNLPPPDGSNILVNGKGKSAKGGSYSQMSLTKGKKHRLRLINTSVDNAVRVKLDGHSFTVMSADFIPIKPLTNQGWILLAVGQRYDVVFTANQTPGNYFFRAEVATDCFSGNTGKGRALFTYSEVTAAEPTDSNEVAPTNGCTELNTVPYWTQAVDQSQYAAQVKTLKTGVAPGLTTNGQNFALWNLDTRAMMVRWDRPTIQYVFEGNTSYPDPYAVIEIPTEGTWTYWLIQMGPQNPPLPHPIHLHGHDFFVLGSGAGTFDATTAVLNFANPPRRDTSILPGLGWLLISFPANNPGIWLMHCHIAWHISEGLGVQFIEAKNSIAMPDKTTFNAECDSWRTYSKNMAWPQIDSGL
Assay: spectrophotometric oxidation at […] nm; Lineweaver-Burk
Assay type: biochemical
Conditions: pH 3.5, 30 °C; partially purified native enzyme; read-out: apparent Km

Km: 584 µM
SMILES: CCn1c(=NN=c2sc3cc(S(=O)(=O)O)ccc3n2CC)sc2cc(S(=O)(=O)O)ccc21 [ABTS, 2,2’-azino-bis(3-ethylbenzothiazoline-6-sulfonic acid)]
